Experimental data published in patent US10155004B2, “17-hydroxy-17-pentafluoroethyl-estra-4,9(10)-dien-11-aryl derivatives, method of production thereof and use thereof for the treatment of diseases” (BAYER INTELLECTUAL PROPERTY GMBH, priority 2009, dated 2018).

Assays:
[1] = target: T1, human progesterone receptor A (Homo sapiens, UniProt P06401); test: Progesterone receptor-antagonistic action in stably transfected SK-N-MC cells, MTV-LUC reporter (PR-A); format: cell-based; details: antagonistic efficacy vs 0.1 nmol/l promegestone
T1 construct: expressed in transfected cells; host or cells: SK-N-MC human neuroblastoma cells, stably transfected
T1 sequence (P06401 1-769 isoform P06401-2): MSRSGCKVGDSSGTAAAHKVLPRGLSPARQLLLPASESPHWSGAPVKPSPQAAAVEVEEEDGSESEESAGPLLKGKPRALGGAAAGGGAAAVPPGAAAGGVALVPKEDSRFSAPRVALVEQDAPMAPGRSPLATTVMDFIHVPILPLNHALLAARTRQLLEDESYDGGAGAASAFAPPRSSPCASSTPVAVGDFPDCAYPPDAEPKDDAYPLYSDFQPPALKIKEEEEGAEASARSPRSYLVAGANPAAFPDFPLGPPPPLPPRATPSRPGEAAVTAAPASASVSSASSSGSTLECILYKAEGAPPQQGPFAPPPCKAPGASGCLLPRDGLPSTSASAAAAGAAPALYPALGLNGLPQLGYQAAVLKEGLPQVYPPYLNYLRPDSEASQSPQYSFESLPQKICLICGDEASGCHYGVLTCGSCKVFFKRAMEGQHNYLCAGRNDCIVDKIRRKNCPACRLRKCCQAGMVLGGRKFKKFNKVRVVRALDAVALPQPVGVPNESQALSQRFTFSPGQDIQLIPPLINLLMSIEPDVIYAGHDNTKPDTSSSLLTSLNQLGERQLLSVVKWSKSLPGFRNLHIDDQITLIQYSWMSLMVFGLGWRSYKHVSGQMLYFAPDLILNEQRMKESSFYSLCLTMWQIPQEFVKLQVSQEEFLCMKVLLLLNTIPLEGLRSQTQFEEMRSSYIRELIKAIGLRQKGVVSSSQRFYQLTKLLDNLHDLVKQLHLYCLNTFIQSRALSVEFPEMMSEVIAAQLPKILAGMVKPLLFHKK
Procedure: EXAMPLE 16 PROGESTERONE RECEPTOR-ANTAGONISTIC ACTION IN STABLE TRANSFECTANTS OF HUMAN NEUROBLASTOMA CELLS (SK-N-MC CELLS) WITH THE HUMAN PROGESTERONE A OR PROGESTERONE B RECEPTOR AND AN MTV-LUC REPORTER CONSTRUCT
SK-N-MC cells (human neuroblastoma cells), which have been stably transfected with plasmids, which express the human progesterone receptor B (pRChPR-B-neo) or the human progesterone receptor A (pRChPR-A-neo) and a reporter construct (pMMTV-LUC), were incubated for 24 hours either in the absence (negative control) or in the presence of increasing amounts of the respective test compound (0.01 nmol/l, 0.1 nmol/l 1 nmol/l, 10 nmol/l, 100 nmol/l and 1 μmol/l), in order to determine the agonistic efficacy. As positive control of reporter gene induction, the cells were treated with the synthetic gestagen promegestone (0.01 nmol/l, 0.1 nmol/l, 1 nmol/l, 10 nmol/l, 100 nmol/l and 1 μmol/l). For determination of the antagonistic activity, the cells were treated with 0.1 nmol/1 promegestone and additionally with increasing amounts of the respective test compound (0.01 nmol/l, 0.1 nmol/l, 1 nmol/l, 10 nmol/l, 100 nmol/l and 1 μmol/l). The activity of the LUC reporter gene (LUC=luciferase) was determined in the cell lysates and was measured as RLU (relative light units). All measured values are given as percentage efficacy and as EC50 or IC50 concentrations.
11β-(4-Acetylphenyl)-20,20,21,21,21-pentafluoro-17-hydroxy-19-nor-17α-pregna-4,9-dien-3-one and 20,20,21,21,21-pentafluoro-17-hydroxy-11β-[4-(hydroxyacetyl)phenyl]-19-nor-17α-pregna-4,9-dien-3-one, very potent and therefore preferred examples from WO98/34947 and WO2008/058767, were tested as comparative compounds along with the test compound.

cardiovascular system = test: Action on the cardiovascular system (incl. ECG) of anaesthetized beagle dogs; format: in vivo
Procedure: EXAMPLE 20 INVESTIGATION OF THE ACTION ON THE CARDIOVASCULAR SYSTEM (INCL. ECG) OF ANAESTHETIZED BEAGLE DOGS
(11β,17β)-17-Hydroxy-11-[4-(methylsulphonyl)phenyl]-17-(pentafluoroethy)estra-4,9-dien-3-one, dissolved in a mixture of PEG 400 and HP-β-CD (60% PEG 400, 40% HP-β-CD 30%), was administered intravenously to anaesthetized female beagle dogs. The body weight of the dogs was >9 kg. 3 dogs were treated per group and additionally 3 dogs in the control group. 0.1; 0.33 and 1 mg/kg of the substance was administered in 3 consecutive infusions, in each case over a period of 30 minutes. The maximum amount of vehicle was 0.4 ml per kg for 30 minutes. Blood samples were taken from the animals at various time points. The highest plasma level (average for all 3 animals) was 1650 ng/ml at the end of the third infusion.

[2] = Chemical stability against temperature, light and oxidative stress; format: physicochemical; details: compared with analogue with alkanoyl or hydroxyalkanoyl group

Q: For C[C@]12C[C@H](c3ccc(S(C)(=O)=O)cc3)C3=C4CCC(=O)C=C4CC[C@H]3[C@@H]1CC[C@@]2(O)C(F)(F)C(F)(F)F [Example 4, (11β,17β)-17-Hydroxy-11-[4-(methylsulphonyl)phenyl]-17-(pentafluoroethyl)estra-4,9-dien-3-one], which “Progesterone receptor A (PR-A) Efficacy” value [1] is on record?
A: 100%

Q: What about the “highest plasma level (average for all 3 animals)” value (cardiovascular system; end of third infusion, i.v. 0.1, 0.33 and 1 mg/kg consecutive 30 minute infusions) of the same compound?
A: 1650 ng/mL

Q: What about the “effects on the cardiovascular system (pulmonary artery pressure, systemic arterial blood pressure, heart rate, ECG)” value (cardiovascular system; i.v. 0.1, 0.33 and 1 mg/kg, in comparison with the control) of the same compound?
A: no biologically relevant effects

Q: What about the oxidation sensitivity [2] of the same compound?
A: surprisingly low oxidation sensitivity

Q: What about the “stability under the influence of UV light” value [2] of the same compound?
A: surprisingly high stability

Q: And the “stability under thermal load” value [2]?
A: surprisingly high stability under thermal load
